From patent publication US20200069644A1, “NOVEL USE OF A FORMYL PEPTIDE RECEPTOR 2/ LIPOXIN A4 RECEPTOR (FPR2/ALX) AGONIST FOR TREATMENT OF HEART FAILURE” (BRISTOL- MYERS SQUIBB COMPANY, priority 2017, published 2020)
Several values for one entry are separate records, joined by “and”; a condition that tells them apart may be missing. Identical values can stand only once.

What was measured:
Type in all cases: cell-based
Mouse FPR1 = molecular target: T1, Mouse FPR1 (Mus musculus, UniProt P33766); assay: cAMP inhibition, mouse FPR1/CHO-A12
T1 construct: expressed in transfected cells
T1 sequence (P33766 1-364): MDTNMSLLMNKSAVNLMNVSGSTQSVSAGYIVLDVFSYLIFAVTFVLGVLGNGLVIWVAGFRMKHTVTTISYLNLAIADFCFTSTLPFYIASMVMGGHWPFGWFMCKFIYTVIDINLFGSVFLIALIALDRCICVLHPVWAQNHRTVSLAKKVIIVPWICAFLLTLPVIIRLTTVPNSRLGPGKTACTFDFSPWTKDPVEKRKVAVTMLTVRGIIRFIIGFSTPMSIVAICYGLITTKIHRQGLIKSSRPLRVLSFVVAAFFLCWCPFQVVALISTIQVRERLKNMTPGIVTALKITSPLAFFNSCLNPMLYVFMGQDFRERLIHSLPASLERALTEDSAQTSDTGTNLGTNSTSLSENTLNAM

Rat FPR1 = molecular target: T2, Rat FPR1 (Rattus norvegicus, UniProt D4A7Q2); assay: cAMP inhibition, rat FPR1 CHO cells
T2 construct: expressed in transfected cells; host or cells: CHO
T2 sequence (D4A7Q2 1-355): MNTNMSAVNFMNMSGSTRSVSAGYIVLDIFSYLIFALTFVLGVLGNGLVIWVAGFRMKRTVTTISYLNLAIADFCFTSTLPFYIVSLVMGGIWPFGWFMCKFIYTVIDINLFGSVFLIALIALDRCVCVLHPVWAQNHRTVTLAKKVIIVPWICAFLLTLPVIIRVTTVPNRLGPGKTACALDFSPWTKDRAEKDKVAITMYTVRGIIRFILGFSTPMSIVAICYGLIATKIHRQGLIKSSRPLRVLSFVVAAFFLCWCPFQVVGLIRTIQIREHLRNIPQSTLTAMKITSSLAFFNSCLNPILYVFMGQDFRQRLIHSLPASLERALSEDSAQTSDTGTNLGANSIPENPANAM

HL-60 cell line = assay: HL-60 cell migration assay, antagonist mode (SAA-stimulated chemotaxis); details: Homo sapiens; HL-60 cells; read-out: IC50, antagonism of chemotaxis stimulated by SAA
Description: The HL-60 cell line (ATCC, CCL-240, lot 60398411) was maintained in IMDM (Life Tech, cat 12440-053) medium supplemented with 20% fetal bovine serum, 50 U/ml penicillin, and 50 μg/ml streptomycin at 37° with 5% CO2. Cells were differentiated into the granulocyte lineage with DMSO; 2.5×10^5 cells/ml were incubated with 1.25% DMSO for 5 days.
After 5 day differentiation, the cells were resuspended in phenol free RPMI (Invitrogen, cat 11835) with 0.2% fatty acid free BSA at a concentration of […]. The dHL-60 cells (10^5 in 100 μl) were pre-incubated for 15 minutes with varying concentrations of the […] at 37° with 5% CO2. Then 0.8 μM of the recombinant serum amyloid A1 peptide (rSAA1, PeproTech, Cat #300-53) was added to the bottom chamber of each HTS transwell-96 well plate (Corning #3387). Migration was induced by placing […] and the dHL60 cells mixture in the top chamber of the transwell plate. Cells were allowed to migrate for 120 min across the 5 micron filters at 37° C. with 5% CO2. Following migration, neutrophils or dHL-60 cells remaining in the transwell lower chamber (migrated fraction) were quantitated using the cell-titer-glo luminescence cell viability assay (Promega, G7571). […]

[1] = test system: Mouse peritoneal macrophages; assay: Enhancement of phagocytosis of FITC zymosan; details: Peritoneal macrophage; mouse peritoneal macrophages elicited with 1% Biogel; read-out: EC50, enhancement of phagocytosis of fluorescently labeled zymosan
Description: Enhancement of phagocytosis Macrophages were elicited to the peritoneum of five C57BL6 mice by peritoneal injection of 1 mL of 1% Biogel in PBS (−/−) 4 days prior to harvest. Peritoneal exudates are harvested, combined and then filtered to remove Biogel beads. First, through a 70 um cell strainer followed by successively filtering through two 40 um cell strainers. The exudate is diluted with 1×PBS (−/−) to 50 mL and centrifuged at 300×g for 10 minutes at 4° C. The cell pellet is gently resuspended in 20-30 mL 1×PBS(+/+) and cells are counted using the Nexelcom Cellometer counter. Cell concentration is adjusted to 1,250,000 cells/mL in 1×PBS (+/+). 100 μL (125 k) cells are placed into each well of a 96-well Costar 3904 plate. The plates are centrifuged at 150×g for 30 seconds to promote adherence. […] Fluorescence signal from non-ingested Zymosan particles is quenched with 150 uL ice-cold 1:15 diluted Trypan Blue solution for 2 minutes and then aspirated to remove. Lastly, the plate is read on a SpectraMAX Gemini EM fluorescence plate reader in 150 ul of 1:50 diluted Trypan Blue. Plate Reader Settings=Bottom Read: Excitation 493 nm: Emission 525 nm: Cutoff 515 nm: Automix Off: Calibrate On: PMT=Auto: Column Priority: Reads/Well=20. […]

`COc1cc(F)c([C@@H]2CNC(=O)[C@H]2NC(=O)Nc2ccccc2)c(F)c1` [Compound 1, 1-((3S,4R)-4-(2,6-difluoro-4-methoxyphenyl)-2-oxopyrrolidin-3-yl)-3-phenylurea] was tested, and the EC50 (Mouse FPR1) was ~384 nM and 384 nM, the EC50 (Rat FPR1) was 720 nM and the IC50 (HL-60 cell line) was 57 nM. It also gave an EC50 [1] of 2 nM.
